Reference: patent US20120190687A1, “Pyrazinylpyrazoles” (Bayer CropScience Ag, priority 2009, published 2012)

Assays:
Lucilia cuprina larvae = experiment: Lucilia cuprina test (LUCICU); type: in vivo; details: 100 ppm, treated horse meat, after 2 days
Method: (§1) Lucilia cuprina Test (LUCICU) Solvent: Dimethyl Sulphoxide To prepare an appropriate active ingredient formulation, 10 mg of active ingredient are mixed with 0.5 ml of dimethyl sulphoxide and the concentrate is diluted with water to the desired concentration. Vessels containing horse meat treated with the active ingredient preparation of the desired concentration are populated with about 20 Lucilia cuprina larvae. After 2 days, the kill in % is determined. 100% means that all of the larvae have been killed; 0% means that none of the larvae have been killed.

Ctenocephalides felis = Ctenocephalides felis test (CTECFE); type: in vivo; details: 100 ppm in citrated cow's blood, after 2 days
Method: Ctenocephalides felis Test ([…]) Solvent: 1 Part by Weight of Dimethyl Sulphoxide For the purpose of preparing an appropriate active ingredient formulation, 10 mg of active ingredient are mixed with 0.5 ml of dimethyl sulphoxide. A portion of the concentrate is diluted with citrated cow's blood and the desired concentration is established. About 20 unfed adult fleas (Ctenocephalides felis) are introduced into a chamber closed at the top and bottom with gauze. A metal cylinder, the bottom of which is closed with Parafilm, is placed onto the chamber. The cylinder contains the blood/active ingredient preparation, which can be imbibed by the fleas through the Parafilm membrane. After 2 days, the kill in % is determined. 100% means that all fleas have been killed; 0% means that none of the fleas have been killed.

[1] = logP by reversed-phase HPLC (EEC Directive 79/831 Annex V.A8); type: physicochemical
Description: [table] The calibration is effected with unbranched alkan-2-ones (having 3 to 16 carbon atoms) with known log P values (log P values determined on the basis of the retention times by linear interpolation between two successive alkanones).

Phaedon cochleariae = experiment: Phaedon test (PHAECO spray treatment); type: in vivo; details: 500 g/ha, Chinese cabbage discs, after 7 days
Method: Phaedon Test ([…] Spray Treatment) Solvent: 78.0 parts by weight of acetone • • 1.5 parts by weight of dimethylformamide Emulsifier: 0.5 part by weight of alkylaryl polyglycol ether To prepare an appropriate active ingredient preparation, 1 part by weight of active ingredient is mixed with the stated amounts of solvent and emulsifier, and the concentrate is diluted with emulsifier-containing water to the desired concentration. Discs of Chinese cabbage (Brassica pekinensis) are sprayed with an active ingredient preparation of the desired concentration and, after drying, populated with larvae of the mustard beetle (Phaedon cochleariae). After 7 days, the efficacy in % is determined. 100% means that all beetle larvae have been killed; 0% means that none of the beetle larvae have been killed.

Spodoptera frugiperda = Spodoptera frugiperda test (SPODFR spray treatment); type: in vivo; details: 500 g/ha, maize leaf discs, after 7 days
Method: Spodoptera frugiperda Test (SPODFR Spray Treatment) Solvent: 78.0 parts by weight of acetone • • 1.5 parts by weight of dimethylformamide Emulsifier: 0.5 part by weight of alkylaryl polyglycol ether To prepare an appropriate active ingredient preparation, 1 part by weight of active ingredient is mixed with the stated amounts of solvent and emulsifier, and the concentrate is diluted with emulsifier-containing water to the desired concentration. Discs of maize leaves (Zea mays) are sprayed with an active ingredient preparation of the desired concentration and, after drying, populated with caterpillars of the armyworm (Spodoptera frugiperda). After 7 days, the efficacy in % is determined. 100% means that all caterpillars have been killed; 0% means that none of the caterpillars have been killed.

Boophilus microplus = Boophilus microplus test (BOOPMI injection); type: in vivo; details: 20 μg/animal, injection into abdomen, after 7 days, laying of fertile eggs
Method: Boophilus microplus Test (BOOPMI Injection) Solvent: Dimethyl Sulphoxide To prepare an appropriate active ingredient formulation, 10 mg of active ingredient are mixed with 0.5 ml of solvent and the concentrate is diluted with solvent to the desired concentration. The active ingredient solution is injected into the abdomen (Boophilus microplus), and the animals are transferred into dishes and stored in a climate-controlled room. The efficacy is assessed by laying of fertile eggs. After 7 days, the efficacy in % is determined. 100% means that none of the ticks has laid any fertile eggs.

Musca domestica = Musca domestica test; type: in vivo; details: 100 ppm, after 2 days
Method: as §1, with “Musca domestica” for “Lucilia cuprina”, “Test” for “Test (LUCICU)”, “a sponge” for “horse meat”, “adult Musca domestica.” for “about 20 Lucilia cuprina larvae.”, “flies” for “larvae”

Myzus persicae = experiment: Myzus test (MYZUPE spray treatment); type: in vivo; details: 500 g/ha, Chinese cabbage discs, after 6 days
Method: Myzus test (MYZUPE Spray Treatment) Solvent: 78 parts by weight of acetone • • 1.5 parts by weight of dimethylformamide Emulsifier: 0.5 part by weight of alkylaryl polyglycol ether To prepare an appropriate active ingredient preparation, 1 part by weight of active ingredient is mixed with the stated amounts of solvent and emulsifier, and the concentrate is diluted with emulsifier-containing water to the desired concentration. Discs of Chinese cabbage (Brassica pekinensis) infested by all stages of the green peach aphid (Myzus persicae) are sprayed with an active ingredient preparation of the desired concentration. After 6 days, the efficacy in % is determined. 100% means that all of the aphids have been destroyed; 0% means that none of the aphids have been destroyed.

Tetranychus urticae = experiment: Tetranychus test, OP-resistant (TETRUR spray treatment); type: in vivo; details: bean leaf discs, after 6 days
Method: Tetranychus Test, OP-resistant (TETRUR Spray Treatment)
Solvent: 78.0 parts by weight of acetone • • 1.5 parts by weight of dimethylformamide
Emulsifier: 0.5 part by weight of alkylaryl polyglycol ether
To prepare an appropriate active ingredient preparation, 1 part by weight of active ingredient is mixed with the stated amounts of solvent and emulsifier, and the concentrate is diluted with emulsifier-containing water to the desired concentration. Discs of bean leaves (Phaseolus vulgaris) infested by all stages of the red spider mite (Tetranychus urticae) are sprayed with an active ingredient preparation of the desired concentration. After 6 days, the efficacy in % is determined. 100% means that all spider mites have been killed; 0% means that none of the spider mites have been killed.

[2] = * LC-MS, acidic range, pH 2.7, 0.1% aqueous formic acid / acetonitrile

| SMILES | efficacy (kill) (Lucilia cuprina larvae) [%] | efficacy (kill) (Ctenocephalides felis) [%] | log P [1, 2] | efficacy (Phaedon cochleariae) [%] | efficacy (Spodoptera frugiperda) [%] | efficacy (Boophilus microplus) [%] | efficacy (kill) (Musca domestica) [%] | efficacy (Myzus persicae) [%] | efficacy (Tetranychus urticae; 500 g/ha) [%] | log P ([1]; *** LC-MS, neutral range, pH 7.8, 0.001 molar aqueous ammonium hydrogencarbonate / acetonitrile) | log P ([1]; ** acidic range, pH 2.3, 0.1% aqueous phosphoric acid / acetonitrile) | efficacy (Tetranychus urticae; 100 g/ha) [%] |
| --- | --- | --- | --- | --- | --- | --- | --- | --- | --- | --- | --- | --- |
| COc1cc(-c2c(C(F)(F)F)nn(-c3nccnc3OC)c2N)cc(C(F)(F)F)c1OC [Ex. 89] | 100 | 100 | 3.56* | 100 | 100 | 100 | 80 |  |  |  |  |  |
| COc1nccnc1-n1nc(C(C)(C)F)c(-c2cc(Cl)cc(Cl)c2)c1N [Ex. 168] |  |  | 3.77* | 100 | 100 |  |  | 100 | 100 |  |  |  |
| C=CCN(CC=C)c1c(-c2cc(Cl)cc(C(F)(F)F)c2)c(C(F)(F)F)nn1-c1nccnc1OC [Ex. 103] |  |  | 4.08* |  |  |  |  | 80 |  |  |  |  |
| COc1nccnc1-n1nc(C(F)(F)F)c(-c2cc(F)c(OC)c(Cl)c2)c1N [Ex. 124] |  |  | 3.47* | 100 | 100 |  |  |  | 90 | 3.5***; |  |  |
| COc1nccnc1-n1nc(C(F)(F)F)c(-c2cc(Cl)cc(C(F)(F)F)c2)c1NCc1ccccc1 [Ex. 33] |  |  | 5.28* | 100 |  |  |  | 80 | 90 |  |  |  |
| COc1nccnc1-n1nc(C(F)(F)C(F)F)c(-c2cc(Cl)c3c(c2)CCO3)c1N [Ex. 66] |  |  | 3.22* | 100 | 100 |  |  |  | 90 |  |  |  |
| COc1nccnc1-n1nc(C(F)(F)F)c(-c2cc(Cl)cc(Cl)c2)c1N [Ex. 6] | 100 | 90 | 3.95* | 100 | 83 | 100 | 80 |  |  |  |  |  |
| COc1nccnc1-n1nc(C(F)(F)F)c(-c2cc(Cl)c3c(c2)COCO3)c1N [Ex. 135] | 100 | 100 | 3.02* | 100 | 80 | 100 |  |  |  |  |  |  |
| COc1nccnc1-n1nc(C(F)(F)F)c(-c2cc(Cl)cc(C(F)(F)F)c2)c1N [Ex. 10] | 100 | 90 | 4.07* |  |  | 100 | 100 |  |  |  |  |  |
| COc1nccnc1-n1nc(C(F)(F)F)c(-c2cc(Cl)c(N(C)C)c(C(F)(F)F)c2)c1N [Ex. 123] |  |  | 4.72* | 100 | 100 |  |  |  | 80 |  |  |  |
| COc1nccnc1-n1nc(C(F)(F)C(F)F)c(-c2cc(Cl)c(Cl)c(Cl)c2)c1N [Ex. 116] |  |  |  | 100 | 100 |  |  |  | 90 |  | 4.37** |  |
| C=Cc1nn(-c2nccnc2OC)c(N)c1-c1cc(Cl)cc(C(F)(F)F)c1 [Ex. 9] | 100 |  | 3.63* | 100 | 100 | 100 |  | 100 | 100 |  |  |  |
| CCOc1cc(-c2c(C(F)(F)F)nn(-c3nccnc3OC)c2N)cc(Cl)c1OCC(F)(F)F [Ex. 144] |  |  | 4.21* | 100 | 100 |  |  |  | 100 |  |  |  |
| COc1nccnc1-n1nc(C(F)(F)F)c(-c2cc(Cl)c3c(c2)OCCCO3)c1N [Ex. 136] | 100 | 100 | 3.25* | 100 |  | 100 |  |  |  |  |  |  |
| COc1nccnc1-n1nc(C(F)(F)C(F)F)c(-c2cc(Cl)cc(C(F)(F)F)c2)c1N [Ex. 59] |  |  | 4.05* | 100 | 83 |  |  | 100 | 100 |  |  |  |
| COc1nccnc1-n1nc(C(F)(F)C(F)F)c(-c2cc(Cl)c3c(c2)OCO3)c1N [Ex. 65] |  |  | 3.18* | 100 | 100 |  |  |  | 90 |  |  |  |
| CSc1nccnc1-n1nc(C(F)(F)F)c(-c2cc(Cl)cc(C(F)(F)F)c2)c1N [Ex. 28] | 100 |  | 4.9* | 100 | 100 | 100 |  |  |  |  |  |  |
| COc1nccnc1-n1nc(C(F)(F)C(F)(F)C(F)(F)F)c(-c2cc(Cl)cc(C(F)(F)F)c2)c1N [Ex. 46] | 100 | 80 | 4.91* | 100 | 100 | 100 |  | 80 | 80 |  |  |  |
| COc1ccc(CNc2c(-c3cc(Cl)cc(C(F)(F)F)c3)c(C(F)(F)F)nn2-c2nccnc2OC)cc1 [Ex. 41] | 100 | 80 | 5.13* | 100 |  |  |  | 90 |  |  |  |  |
| COc1nccnc1-n1nc(C(F)(F)F)c(-c2cc3c(c(C(F)(F)F)c2)OCCO3)c1N [Ex. 173] |  |  | 3.27* | 100 | 100 |  |  |  | 90 |  |  |  |
| CCC(OC)c1nn(-c2nccnc2OC)c(N)c1-c1ccc(Cl)c(Cl)c1 (centres unmarked) [Ex. 3] | 100 |  |  | 100 |  | 100 |  |  | 100 |  |  |  |
| C=C(C)c1nn(-c2nccnc2OC)c(N)c1-c1cc(Cl)cc(Cl)c1 [Ex. 167] |  |  | 3.79* | 100 |  |  |  | 100 | 100 |  |  |  |
| COc1nccnc1-n1nc(C(F)(F)F)c(-c2cc(Cl)c(N(C)C)c(Cl)c2)c1N [Ex. 121] |  |  | 4.46* | 100 | 100 |  |  |  |  |  |  | 80 |
| COc1cc(-c2c(C(F)(F)C(F)F)nn(-c3nccnc3OC)c2N)cc(C(F)(F)F)c1OC [Ex. 157] |  |  | 3.58* | 100 | 100 |  |  |  | 100 |  |  |  |
